Results from patent publication US20170190671A1, “BIS(ARYL)CATECHOL DERIVATIVES AS HERBICIDES” (E I DU PONT DE NEMOURS AND COMPANY, priority 2014, published 2017).

Tests used:
[1] = tested on: barnyardgrass (Echinochloa crus-galli); experiment: Test A preemergence; assay type: in vivo; settings: Echinochloa crus-galli, pre-emergence, 240 h, 0 to 100 scale (0 no effect, 100 complete control), read-out: Barnyardgrass plant response rating
Method in brief: (§1)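 Injury scores run from 0, no effect, to 100, complete control, judged by eye against untreated plants roughly 10 days after treatment. Chemicals carried a surfactant in a non-phytotoxic solvent and went onto loam–sand soil preemergence or onto one- to two-leaf seedlings postemergence.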

[2] = tested on: pigweed (Amaranthus retroflexus); experiment: Test A preemergence; assay type: in vivo; settings: Amaranthus retroflexus, pre-emergence, 240 h, 0 to 100 scale (0 no effect, 100 complete control), read-out: Pigweed plant response rating
Method in brief: as §1

[3] = tested on: kochia (Kochia scoparia); experiment: Test A preemergence; assay type: in vivo; settings: Bassia scoparia, pre-emergence, 240 h, 0 to 100 scale (0 no effect, 100 complete control), read-out: Kochia plant response rating
Method in brief: as §1

[4] = tested on: giant foxtail (Setaria faberii); experiment: Test A preemergence; assay type: in vivo; settings: Setaria faberi, pre-emergence, 240 h, 0 to 100 scale (0 no effect, 100 complete control), read-out: Foxtail, Giant plant response rating
Method in brief: as §1

[5] = tested on: ragweed (common ragweed, Ambrosia elatior); experiment: Test A preemergence; assay type: in vivo; settings: Ambrosia artemisiifolia, pre-emergence, 240 h, 0 to 100 scale (0 no effect, 100 complete control), read-out: Ragweed plant response rating
Method in brief: as §1

[6] = tested on: Italian ryegrass (Lolium multiflorum); experiment: Test A preemergence; assay type: in vivo; settings: Lolium multiflorum, pre-emergence, 240 h, 0 to 100 scale (0 no effect, 100 complete control), read-out: Ryegrass, Italian plant response rating
Method in brief: as §1

[7] = tested on: barnyardgrass (Echinochloa crus-galli); experiment: Test A postemergence; assay type: in vivo; settings: Echinochloa crus-galli, post-emergence, 240 h, 0 to 100 scale, read-out: Plant response rating, Barnyardgrass
Method in brief: as §1

[8] = tested on: blackgrass (Alopecurus myosuroides); experiment: Test A postemergence; assay type: in vivo; settings: Alopecurus myosuroides, post-emergence, 240 h, 0 to 100 scale, read-out: Plant response rating, Blackgrass
Method in brief: as §1

[9] = tested on: pigweed (Amaranthus retroflexus); experiment: Test A postemergence; assay type: in vivo; settings: Amaranthus retroflexus, post-emergence, 240 h, 0 to 100 scale, read-out: Plant response rating, Pigweed
Method in brief: as §1

[10] = tested on: kochia (Kochia scoparia); experiment: Test A postemergence; assay type: in vivo; settings: Bassia scoparia, post-emergence, 240 h, 0 to 100 scale, read-out: Plant response rating, Kochia
Method in brief: as §1

[11] = tested on: giant foxtail (Setaria faberii); experiment: Test A postemergence; assay type: in vivo; settings: Setaria faberi, post-emergence, 240 h, 0 to 100 scale, read-out: Plant response rating, Foxtail, Giant
Method in brief: as §1

[12] = tested on: corn (Zea mays); experiment: Test A postemergence; assay type: in vivo; settings: Zea mays, post-emergence, 240 h, 0 to 100 scale
Method in brief: as §1

[13] = tested on: ragweed (common ragweed, Ambrosia elatior); experiment: Test A postemergence; assay type: in vivo; settings: Ambrosia artemisiifolia, post-emergence, 240 h, 0 to 100 scale, read-out: Plant response rating, Ragweed
Method in brief: as §1

[14] = tested on: wheat (Triticum aestivum); experiment: Test A postemergence; assay type: in vivo; settings: Triticum aestivum, post-emergence, 240 h, 0 to 100 scale, read-out: Plant response rating, Wheat
Method in brief: as §1

[15] = tested on: galium (catchweed bedstraw, Galium aparine); experiment: Test A postemergence; assay type: in vivo; settings: Galium, post-emergence, 240 h, 0 to 100 scale, read-out: Plant response rating, Galium
Method in brief: as §1

[16] = tested on: Italian ryegrass (Lolium multiflorum); experiment: Test A postemergence; assay type: in vivo; settings: Lolium multiflorum, post-emergence, 240 h, 0 to 100 scale, read-out: Plant response rating, Ryegrass, Italian
Method in brief: as §1

[17] = tested on: ducksalad (Heteranthera limosa); experiment: Test B flooded paddy; assay type: in vivo; settings: Heteranthera limosa, 336 h; 250 g ai/ha, Flood, 13 to 15 days, scale 0 (no effect) to 100 (complete control); read-out: Plant response rating, Ducksalad
Method in brief: (§2)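 Under a constant 3 cm flood, test compounds went directly into the paddy water. Following 13 to 15 days of greenhouse growth, treated species and controls were compared by eye.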

[18] = tested on: barnyardgrass (Echinochloa crus-galli); experiment: Test B flooded paddy; assay type: in vivo; settings: Echinochloa crus-galli, 336 h; 250 g ai/ha, Flood, 13 to 15 days, scale 0 (no effect) to 100 (complete control); read-out: Plant response rating, Barnyardgrass
Method in brief: as §2

[19] = tested on: sedge, umbrella (small-flower umbrella sedge, Cyperus difformis); experiment: Test B flooded paddy; assay type: in vivo; settings: Cyperus difformis, 336 h; 250 g ai/ha, Flood, 13 to 15 days, scale 0 (no effect) to 100 (complete control); read-out: Plant response rating, Sedge, Umbrella
Method in brief: as §2

[20] = tested on: rice (Oryza sativa); experiment: Test B flooded paddy; assay type: in vivo; settings: Oryza sativa, 336 h; 250 g ai/ha, Flood, 13 to 15 days, scale 0 (no effect) to 100 (complete control); read-out: Plant response rating, Rice
Method in brief: as §2

[21] = tested on: pigweed (Amaranthus retroflexus); experiment: Test C postemergence; assay type: in vivo; settings: Amaranthus retroflexus, post-emergence, 336 h, Postemergence, scale 0 to 100, read-out: Plant response rating, Pigweed
Method in brief: (§3)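 Treatment is preemergence to seeds in a loam and sand soil, or postemergence to plants 2 to 18 cm high in a peat moss-based medium. The compound is delivered in a non-phytotoxic solvent mixture including surfactant. Effects are judged by eye 13 to 15 days later on a 0 to 100 scale.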

[22] = tested on: kochia (Kochia scoparia); experiment: Test C postemergence; assay type: in vivo; settings: Bassia scoparia, post-emergence, Postemergence, scale 0 to 100, read-out: Plant response rating, Kochia
Method in brief: as §3

melting point: 172 to 175 °C
SMILES: N#Cc1cccc(Oc2ncc(Cl)cn2)c1Oc1ccc(Cl)cc1 [Compound 36]
pest or weed control at 31 g/ha ([1]; 31 g ai/ha): 0%
pest or weed control at 125 g/ha ([1]; 125 g ai/ha): 40%
pest or weed control at 31 g/ha ([2]; 31 g ai/ha): 60%
pest or weed control at 125 g/ha ([2]; 125 g ai/ha): 100%
pest or weed control at 31 g/ha ([3]; 31 g ai/ha): 10%
pest or weed control at 125 g/ha ([3]; 125 g ai/ha): 50%
pest or weed control at 31 g/ha ([4]; 31 g ai/ha): 70%
pest or weed control at 125 g/ha ([4]; 125 g ai/ha): 90%
pest or weed control at 31 g/ha ([5]; 31 g ai/ha): 0%
pest or weed control at 125 g/ha ([5]; 125 g ai/ha): 0%
pest or weed control at 31 g/ha ([6]; 31 g ai/ha): 0%
pest or weed control at 125 g/ha ([6]; 125 g ai/ha): 20%
pest or weed control at 31 g/ha ([7]; 31 g ai/ha): 10%
pest or weed control at 125 g/ha ([7]; 125 g ai/ha): 30%
pest or weed control at 31 g/ha ([8]; 31 g ai/ha): 20%
pest or weed control at 125 g/ha ([8]; 125 g ai/ha): 40%
pest or weed control at 31 g/ha ([9]; 31 g ai/ha): 90%
pest or weed control at 125 g/ha ([9]; 125 g ai/ha): 100%
pest or weed control at 31 g/ha ([10]; 31 g ai/ha): 80%
pest or weed control at 125 g/ha ([10]; 125 g ai/ha): 100%
pest or weed control at 31 g/ha ([11]; 31 g ai/ha): 20%
pest or weed control at 125 g/ha ([11]; 125 g ai/ha): 50%
Corn plant response rating (crop injury, 0 = no effect, 100 = complete kill) at 31 g/ha ([12]; 31 g ai/ha): 20%
Corn plant response rating (crop injury, 0 = no effect, 100 = complete kill) at 125 g/ha ([12]; 125 g ai/ha): 20%
pest or weed control at 31 g/ha ([13]; 31 g ai/ha): 10%
pest or weed control at 125 g/ha ([13]; 125 g ai/ha): 20%
plant injury at 31 g/ha ([14]; 31 g ai/ha): 0%
plant injury at 125 g/ha ([14]; 125 g ai/ha): 10%
pest or weed control at 31 g/ha ([15]; 31 g ai/ha): 90%
pest or weed control at 125 g/ha ([15]; 125 g ai/ha): 100%
pest or weed control at 31 g/ha ([16]; 31 g ai/ha): 0%
pest or weed control at 125 g/ha ([16]; 125 g ai/ha): 10%
pest or weed control at 250 g/ha [17]: 65%
pest or weed control at 250 g/ha [18]: 0%
pest or weed control at 250 g/ha [19]: 95%
plant injury at 250 g/ha [20]: 0%
pest or weed control at 31 g/ha ([21]; 31 g ai/ha): 90%
pest or weed control at 62 g/ha ([21]; 62 g ai/ha): 98%
pest or weed control at 125 g/ha ([21]; 125 g ai/ha): 100%
pest or weed control at 16 g/ha ([22]; 16 g ai/ha): 90%
pest or weed control at 31 g/ha ([22]; 31 g ai/ha): 95%
pest or weed control at 62 g/ha ([22]; 62 g ai/ha): 95%
pest or weed control at 125 g/ha ([22]; 125 g ai/ha): 100%
